“And” between values parts separate entries of the source, which are not always exact repeats. Identical values can stand only once. Each block holds one compound with its values, some of them ahead of it.
Key:
[1] = test system: Rattus norvegicus; assay: In vivo Sterol lowering activity at dose as 0.10 % of the diet.; type: functional
[2] = test system: Rattus norvegicus; assay: In vivo Triglyceride lowering activity at dose as 0.10 % of the diet.; type: functional
[3] = test system: Rattus norvegicus; assay: In vivo Sterol lowering activity at dose as 0.03 % of the diet.; type: functional
[4] = test system: Rattus norvegicus; assay: In vivo Sterol lowering activity at dose as 0.01 % of the diet.; type: functional
[5] = biological target: T1, Sterol O-acyltransferase 1 (Rattus norvegicus) (UniProt O70536); assay: In vitro inhibitory activity against acyl coenzyme A:cholesterol acyltransferase; set-up: concentration or dose not given beside the values; settings: concentration not given here
T1 sequence (whole entry): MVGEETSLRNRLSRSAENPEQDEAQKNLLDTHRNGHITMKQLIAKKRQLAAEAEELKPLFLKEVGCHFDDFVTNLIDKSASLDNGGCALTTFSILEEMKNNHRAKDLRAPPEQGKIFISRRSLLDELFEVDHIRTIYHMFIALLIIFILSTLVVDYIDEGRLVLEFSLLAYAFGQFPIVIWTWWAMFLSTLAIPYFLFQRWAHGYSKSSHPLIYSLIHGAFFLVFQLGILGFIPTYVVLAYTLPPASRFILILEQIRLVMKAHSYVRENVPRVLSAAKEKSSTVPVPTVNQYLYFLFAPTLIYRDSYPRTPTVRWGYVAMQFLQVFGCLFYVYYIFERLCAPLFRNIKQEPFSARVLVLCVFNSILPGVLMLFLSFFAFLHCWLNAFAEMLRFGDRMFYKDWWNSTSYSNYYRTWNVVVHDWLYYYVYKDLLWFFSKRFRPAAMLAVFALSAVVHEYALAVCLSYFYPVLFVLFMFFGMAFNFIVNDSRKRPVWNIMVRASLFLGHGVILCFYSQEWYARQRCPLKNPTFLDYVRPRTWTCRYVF

[6] = test system: Rattus norvegicus; assay: In vivo Triglyceride lowering activity at dose as 0.03 % of the diet.; type: functional
[7] = test system: Rattus norvegicus; assay: In vivo Triglyceride lowering activity at dose as 0.01 % of the diet.; type: functional
[8] = test system: Rattus norvegicus; assay: In vivo Triglyceride lowering activity at a dose of 0.10 % of the diet; type: functional
[9] = test system: Rattus norvegicus; assay: In vivo sterol lowering activity at dose of 0.10 % of the diet; type: functional
[10] = test system: Rattus norvegicus; assay: In vivo sterol lowering activity, dosed as 0.03 % of the diet; type: functional
[11] = test system: Rattus norvegicus; assay: In vivo Triglyceride lowering activity at dose as 0.01 % of the diet; type: functional
[12] = test system: Rattus norvegicus; assay: In vivo Triglyceride lowering activity at dose as 0.03 % of the diet; type: functional
[13] = test system: Rattus norvegicus; assay: In vivo Sterol lowering activity at dose as 0.01% of the diet; type: functional

inhibition [5]: 23%
SMILES: CCOC(=O)c1ccc(NC(C)C(=O)OCC)cc1 (centres undefined)
Diet [1]: 107% | Diet [2]: 82% | Diet [3]: 93% | Diet [4]: 107% | Diet [6]: 110% | Diet [7]: 123%

SMILES: O=C(O)c1ccc(NCCC2CCCC2)cc1
Diet [1]: 88% | serum triglyceride level (% of control) [8]: 64% | Diet [3]: 94% | Diet [4]: 92% | Diet [6]: 83% | Diet [7]: 78%

inhibition [5]: 32%
SMILES: CCOC(=O)CN(CC(=O)OCC)c1ccc(C(=O)OCC)cc1
Diet [1]: 100% | Diet [2]: 122% | Diet [3]: 98% | Diet [4]: 93% | Diet [6]: 120% | Diet [7]: 77%

inhibition [5]: 14%
SMILES: O=C(O)CN(CC(=O)O)c1ccc(C(=O)O)cc1
Diet [1]: 91% | Diet [2]: 100% | Diet [3]: 89% | Diet [4]: 95% | Diet [6]: 84% | Diet [7]: 92%

inhibition [5]: 24%
SMILES: CCOC(=O)CNc1ccc(C(=O)OCC)cc1
Diet [1]: 100% | Diet [2]: 121% | Diet [3]: 100% | Diet [4]: 90% | Diet [6]: 114% | Diet [7]: 109%

inhibition [5]: 26%
SMILES: CCOC(=O)c1ccc(NCCCC#N)cc1
Diet [1]: 109% | Diet [2]: 97% | Diet [3]: 118% | Diet [4]: 116% | Diet [6]: 113% | Diet [7]: 131%

inhibition [5]: 0%
SMILES: O=C(O)CCCNc1ccc(C(=O)O)cc1
Diet [1]: 99% | Diet [2]: 86%

inhibition [5]: 1%
SMILES: O=C(O)c1ccc(NCC2CCCCC2)cc1
serum sterol level, % of control [9]: 83% | serum sterol level, percent of control [10]: 84% | serum triglyceride level (% of control) [8]: 62% | Diet [4]: 95% | serum triglyceride level (% of control) [11]: 73% | triglyceride lowering activity [12]: 71%

inhibition [5]: 0%
SMILES: CCCC(Nc1ccc(C(=O)O)cc1)C(=O)O (centres undefined)
serum sterol level, percent of control [10]: 87% | Diet [4]: 95% | Diet [6]: 74% | Diet [7]: 93%

inhibition [5]: 8%
SMILES: N#CCCCNc1ccc(C(=O)O)cc1
Diet [1]: 94% | Diet [2]: 93%

inhibition [5]: 6%
SMILES: CCOC(=O)c1ccc(N2CCCC2=O)cc1
Diet [2]: 72% | serum sterol level, % of control [9]: 84%

inhibition [5]: 17%
SMILES: NC(=O)CNc1ccc(C(=O)O)cc1
Diet [1]: 100% | Diet [2]: 102%

inhibition [5]: 11%
SMILES: CCOC(=O)CCCNc1ccc(C(=O)OCC)cc1
Diet [1]: 93% | Diet [2]: 103%

inhibition [5]: < 59%
SMILES: CCOC(=O)c1ccc(NCCC[Si](C)(C)C)cc1
serum sterol level, percent of control [13]: 99% | serum sterol level, % of control [9]: <77% | serum sterol level, percent of control [10]: 86% | serum triglyceride level (% of control) [8]: <54% | serum triglyceride level (% of control) [11]: <60% | triglyceride lowering activity [12]: <63%

inhibition [5]: < 30%
SMILES: O=C(O)c1ccc(NCCCCCCCCCCCNc2ccc(C(=O)O)cc2)cc1
serum sterol level, percent of control [13]: 99% | serum sterol level, % of control [9]: 87% | serum sterol level, percent of control [10]: 94% | serum triglyceride level (% of control) [8]: 84% | serum triglyceride level (% of control) [11]: <68% | triglyceride lowering activity [12]: 85%

inhibition [5]: < 69%
SMILES: CCCCCCCCCCC(C#N)CCCCCNc1ccc(C(=O)OCC)cc1 (centres undefined)
serum sterol level, percent of control [13]: 100% | serum sterol level, % of control [9]: 87% | serum sterol level, percent of control [10]: 97% | serum triglyceride level (% of control) [8]: <51% | serum triglyceride level (% of control) [11]: <66% | triglyceride lowering activity [12]: <69%

inhibition [5]: 13%
SMILES: CCCCCCCCCCCCCCCCN(C(=O)CCC(=O)O)c1ccc(C(=O)O)cc1
serum sterol level, percent of control [13]: 111% | serum sterol level, % of control [9]: 88% | serum sterol level, percent of control [10]: 105% | serum triglyceride level (% of control) [8]: 117% | serum triglyceride level (% of control) [11]: 84% | triglyceride lowering activity [12]: 90%

inhibition [5]: 60%
SMILES: CCOC(=O)c1ccc(NCCC2CCCC2)cc1
Diet [1]: 96% | serum triglyceride level (% of control) [8]: 69%

inhibition [5]: < 33%
SMILES: CCCCCC(=O)CCCCCCCCCCNc1ccc(C(=O)O)cc1
serum sterol level, percent of control [13]: 93% | serum sterol level, % of control [9]: <81% | serum sterol level, percent of control [10]: 89% | serum triglyceride level (% of control) [8]: <42% | serum triglyceride level (% of control) [11]: <59% | triglyceride lowering activity [12]: <57%

inhibition [5]: 7%
SMILES: CCOC(=O)c1ccc(NCCCCCCCCCCCCC(C)(C)C)cc1
serum sterol level, percent of control [13]: <89% | serum sterol level, % of control [9]: <83% | serum sterol level, percent of control [10]: <84% | serum triglyceride level (% of control) [8]: 81% | serum triglyceride level (% of control) [11]: 99% | triglyceride lowering activity [12]: 83%

inhibition [5]: < 36%
SMILES: O=C(O)c1ccc(NCCCCCCCCCCCOc2ccc(C(=O)O)cc2)cc1
serum sterol level, percent of control [13]: 103% | serum sterol level, % of control [9]: 103% | serum sterol level, percent of control [10]: 91% | serum triglyceride level (% of control) [8]: 91% | serum triglyceride level (% of control) [11]: 90% | triglyceride lowering activity [12]: 79%

inhibition [5]: 6% and 0%
SMILES: O=C(O)CCNc1ccc(C(=O)O)cc1
Diet [1]: 100% | serum triglyceride level (% of control) [8]: 72% | Diet [3]: 118% | Diet [4]: 101% | Diet [6]: 108% | Diet [7]: 97%

inhibition [5]: < 32%
SMILES: CCOC(=O)c1ccc(NC(=O)CCCCCCCCCCCCCCCBr)cc1
serum sterol level, percent of control [13]: 96% | serum sterol level, % of control [9]: <86% | serum sterol level, percent of control [10]: 93% | serum triglyceride level (% of control) [8]: 79% | serum triglyceride level (% of control) [11]: 84% | triglyceride lowering activity [12]: 94%

inhibition [5]: 13%
SMILES: CCCCCCCCCCC(Cl)CCCCCNc1ccc(C(=O)OCC)cc1 (centres undefined)
serum sterol level, percent of control [13]: 98% | serum sterol level, % of control [9]: 94% | serum sterol level, percent of control [10]: 91% | serum triglyceride level (% of control) [8]: <53% | serum triglyceride level (% of control) [11]: 82% | triglyceride lowering activity [12]: 84%

inhibition [5]: 16%
SMILES: CCCCCCCCCCCCCCCC(=O)Nc1ccc(C(=O)O)cc1
serum sterol level, percent of control [13]: 111% | serum sterol level, % of control [9]: 112% | serum sterol level, percent of control [10]: 118% | serum triglyceride level (% of control) [8]: 105% | serum triglyceride level (% of control) [11]: 103% | triglyceride lowering activity [12]: 94%

inhibition [5]: 0%
SMILES: CCCCCCCCCCC(N)CCCCCNc1ccc(C(=O)OCC)cc1 (centres undefined)
serum sterol level, percent of control [13]: 97% | serum sterol level, % of control [9]: 84% | serum sterol level, percent of control [10]: 99% | serum triglyceride level (% of control) [8]: <45% | serum triglyceride level (% of control) [11]: 68% | triglyceride lowering activity [12]: 70%

inhibition [5]: < 61%
SMILES: CCOC(=O)c1ccc(NCCCCCCCCCCCBr)cc1
serum sterol level, percent of control [13]: 108% | serum sterol level, % of control [9]: 101% | serum sterol level, percent of control [10]: 94% | serum triglyceride level (% of control) [8]: 74% | serum triglyceride level (% of control) [11]: 83% | triglyceride lowering activity [12]: 83%

inhibition [5]: < 38%
SMILES: O=C(O)c1ccc(NCCCCCCCCCCCCCCCCS)cc1
serum sterol level, percent of control [13]: 96% | serum sterol level, % of control [9]: 101% | serum sterol level, percent of control [10]: 101% | serum triglyceride level (% of control) [8]: <40% | serum triglyceride level (% of control) [11]: 67% | triglyceride lowering activity [12]: <45%

inhibition [5]: < 56%
SMILES: O=C(O)c1ccc(NCCCCCCCCCCCC2CCCCC2)cc1
serum sterol level, percent of control [13]: 95% | serum sterol level, % of control [9]: 83% | serum sterol level, percent of control [10]: 91% | serum triglyceride level (% of control) [8]: <48% | serum triglyceride level (% of control) [11]: 73% | triglyceride lowering activity [12]: <51%

inhibition [5]: < 18%
SMILES: CCCCCCCCCCCCCCC(C)Nc1ccc(C(=O)OCC)cc1 (centres undefined)
serum sterol level, percent of control [13]: 107% | serum sterol level, % of control [9]: 93% | serum sterol level, percent of control [10]: 100% | serum triglyceride level (% of control) [8]: <55% | serum triglyceride level (% of control) [11]: 81% | triglyceride lowering activity [12]: <55%

inhibition [5]: 7%
SMILES: CCOC(=O)c1ccc(NCC(F)(F)C(F)(F)C(F)(F)C(F)(F)C(F)(F)C(F)(F)C(F)(F)F)cc1
serum sterol level, percent of control [13]: <81% | serum sterol level, % of control [9]: <44% | serum sterol level, percent of control [10]: <65% | serum triglyceride level (% of control) [8]: <35% | serum triglyceride level (% of control) [11]: <47% | triglyceride lowering activity [12]: <43%

inhibition [5]: < 51%
SMILES: CCCCCCCCCCC(C)Nc1ccc(C(=O)O)cc1 (centres undefined)
serum sterol level, percent of control [13]: 94% | serum sterol level, % of control [9]: 92% | serum sterol level, percent of control [10]: <90% | serum triglyceride level (% of control) [8]: <58% | serum triglyceride level (% of control) [11]: <42% | triglyceride lowering activity [12]: <49%

inhibition [5]: 22%
SMILES: O=C(O)c1ccc(NCCCCCCCCCCC(F)(F)F)cc1
serum sterol level, percent of control [13]: 92% | serum sterol level, % of control [9]: <69% | serum sterol level, percent of control [10]: <80% | serum triglyceride level (% of control) [8]: <56% | serum triglyceride level (% of control) [11]: <57% | triglyceride lowering activity [12]: <57%

From ChEMBL document CHEMBL1122462, “Potential antiatherosclerotic agents. 4. [(Functionalized-alkyl)amino]benzoic acid analogues of cetaben” (1983)
